Values quoted from earlier work, collected in patent US6790445B1, “Preservatives for vaccines” (Merck & Co., Inc., priority 1997, dated 2004).

Assays:
[1] = in vivo
mice = conditions: intraperitoneally
population = conditions: in vivo
[2] = at 4° C.

Question: With `OCCOc1ccccc1` [2-Phenoxyethanol, 2-phenoxyethanol] as the compound, how does the “acute oral LD50” value (rats) read?
Answer: 1.26 to 2.33 mL/kg

Question: And the “acute dermal LD50” value (rabbits)?
Answer: 2.0 mL/kg

Question: For `OCc1ccccc1` [Benzyl Alcohol, benzyl alcohol], which probable lethal dose [1] is on record?
Answer: 500 to 5000 mg/kg

Question: For `COC(=O)c1ccc(O)cc1` [Methyl Paraben, methyl paraben], which LD50 (mice) is on record?
Answer: 1000 mg/kg

Question: For `C[CH2][Hg][S]c1ccccc1C(=O)[O-].[Na+]` [Thimerosal], which “allergic reaction, share of the population” value (population) is on record?
Answer: about sixteen

Question: For `N[C@@H](Cc1c[nH]cn1)C(=O)O` [histidine, L-histidine], which pKa [2] is on record?
Answer: 7
